Results taken from ChEMBL document CHEMBL1127243, “8-chlorodibenz[b,f][1,4]oxazepine-10(11H)-carboxylic acid,2-[3-[2-(furanylmethyl)thio]-1-oxopropyl]hydrazide (SC-51322): A potent PGE2 antagonist and analgesic” (Bioorg Med Chem Lett, 1994).

Columns and labels:
Mus musculus = experiment: Compound was tested for analgesic activity in the mouse writhing assay at intragastric dose of 30 mg/Kg; assay type: functional; conditions: po
[1] = Compound was tested for antagonism of Prostaglandin E2 receptor activity in guinea pig ileum assay based on the dose ratio at 3 uM; conditions: read-out: pA2 (converted)

Row | Compound | ED50 (Mus musculus) | Kb [1]
1 | O=C(CCS(=O)(=O)Cc1ccco1)NNC(=O)N1Cc2ccccc2Oc2ccc(Cl)cc21 | 5 mg/kg | 0.251 µM
2 | O=C(CCSCc1ccco1)NNC(=O)N1Cc2ccccc2Oc2ccc(Cl)cc21 | 0.9 mg/kg | 
3 | O=C(CC[S+]([O-])Cc1ccco1)NNC(=O)N1Cc2ccccc2Oc2ccc(Cl)cc21 (configuration not stated) | 5 mg/kg | 0.631 µM
4 | O=C(CCCCCl)NNC(=O)N1Cc2ccccc2Oc2ccc(Cl)cc21 [PINADOLINE] | 9.8 mg/kg | 0.631 µM
